Laboratory results from patent publication US20250302973A1, “POLYMER CONJUGATES OF DRUGS WITH CENTRAL NERVOUS SYSTEM (CNS) EFFECTS AND […] BLOCKING ACTIVITY AND/OR IMMUNE SYSTEM […]” (UNIVERSITY OF PADOVA, priority 2022, published 2025).

Tests used:
A-549 cells = test: A-549 lung cells co-cultured 24 hours with THP-1-derived macrophages, mRNA expression of inflammatory cytokines; details: 1 μM; A-549 cells incubated (co-culture) with macrophages derived from THP-1 cells; effect only in presence of macrophages
C57BL6/J male mice = test: Open field test, total locomotor activity as distance travelled; type: in vivo; details: intraperitoneal 0.3 mg/kg MK-801 or equivalent dose, test 10 min after injection, compared with vehicle, n=7 per group
Method: The present inventors used 7 C57BL6/J male (3-4 months old) mice per treatment group, keeping them in a temperature-controlled room (22° C.) on a 12:12 h light-dark cycle (light on at 7:00 AM) and fed a standard pellet diet and tap water ad libitum. Experimental mice were habituated to the testing room by transferring them to the behavioural room 30 min prior to beginning of the test. The open field test was conducted between 9:00 am and 4:00 pm. MK-801 and derivatives were dissolved in a vehicle composed by 0.9% NaCl physiological solution. Each mouse was singly placed at the corner of a grey-painted open field arena (40×40×30 cm) 10 min after the intraperitoneal injection (Volume of injection 0.1 mL) of either Vehicle, 0.3 mg/kg MK-801, or the equivalent dose of 0.3 mg/kg MK-801 of the PEG 4 MK-801, PEG 6 MK-801, PEG 8 MK-801 or PEG 10 MK-801 derivatives. Using an automated behavioral tracking system (Videotrack, View Point Life Science), we determined the total locomotor activity measured as distance travelled by the animal during the 10 min duration of the test.

C[C@]12N[C@H](Cc3ccccc31)c1ccccc12 [MK-801, dizocilpine]
mRNA expression of the inflammatory cytokine CCL-2 (A-549 cells): reduces
mRNA expression of the inflammatory cytokine IL-1β (A-549 cells): reduces
distance travelled by the mice during 10 min in the Open Field Test (C57BL6/J male mice): significantly increased

CCC(=O)C(C[C@H](C)N(C)C)(c1ccccc1)c1ccccc1 [esmethadone, (S)-methadone]
mRNA expression of the inflammatory cytokine CCL-2 (A-549 cells): reduces
mRNA expression of the inflammatory cytokine IL-1β (A-549 cells): reduces
